In paper PMC6583964, “Identification and functional characterization of D-fructose receptor in an egg parasitoid, Trichogramma chilonis” (PLoS ONE, 2019):

Legend:
TchiGR43a [1] = molecular target: T1, TchiGR43a (Trichogramma chilonis, UniProt A0A481RL18); test: two-electrode voltage-clamp of Xenopus oocytes expressing TchiGR43a, dose-response; type: cell-based
T1 construct: full-length open reading frame (549 amino acid residues), expressed in Xenopus laevis oocytes
T1 sequence (A0A481RL18 1-549): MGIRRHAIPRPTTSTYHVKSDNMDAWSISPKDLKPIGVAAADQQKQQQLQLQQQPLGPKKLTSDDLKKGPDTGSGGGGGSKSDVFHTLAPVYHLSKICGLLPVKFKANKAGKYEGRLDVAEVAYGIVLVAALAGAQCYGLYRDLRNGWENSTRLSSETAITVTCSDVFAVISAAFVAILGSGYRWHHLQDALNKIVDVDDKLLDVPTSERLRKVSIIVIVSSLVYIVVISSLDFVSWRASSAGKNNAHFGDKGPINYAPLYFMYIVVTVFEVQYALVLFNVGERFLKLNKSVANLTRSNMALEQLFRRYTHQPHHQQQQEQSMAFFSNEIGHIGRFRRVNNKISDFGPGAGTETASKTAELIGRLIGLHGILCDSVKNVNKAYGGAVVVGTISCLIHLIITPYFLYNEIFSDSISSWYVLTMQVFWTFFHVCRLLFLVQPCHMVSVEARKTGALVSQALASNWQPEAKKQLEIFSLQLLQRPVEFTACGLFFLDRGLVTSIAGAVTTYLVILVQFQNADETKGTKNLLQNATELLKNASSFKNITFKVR

TchiGR43a [2] = molecular target: T1, TchiGR43a; test: two-electrode voltage-clamp of Xenopus oocytes expressing TchiGR43a, single concentration […] (weaker response than D-fructose); type: cell-based

Row | SMILES | EC50 (TchiGR43a [1]) | two-electrode voltage-clamp of Xenopus oocytes expressing TchiGR43a, single conc (TchiGR43a [2])
1 | O=C(CO)[C@@H](O)[C@H](O)[C@H](O)CO [D-fructose] | 23 mM | 
2 | O[C@H]1[C@H](O)[C@@H](O)[C@H](O)[C@@H](O)[C@H]1O [myo-inositol] |  | the oocytes expressing TchiGR43a showed responses to D-fructose and myo-inositol
